The values below come from patent US20220144838A1, “Compounds as Inhibitors of Macrophage Migration Inhibitory Factor” (NANJING IMMUNOPHAGE BIOTECH CO., LTD., priority 2019, published 2022).

Molecules are shown by their SMILES.

The assay has as its target T1, MIF (Homo sapiens, UniProt P14174).
T1 sequence (P14174 2-115 limits assumed): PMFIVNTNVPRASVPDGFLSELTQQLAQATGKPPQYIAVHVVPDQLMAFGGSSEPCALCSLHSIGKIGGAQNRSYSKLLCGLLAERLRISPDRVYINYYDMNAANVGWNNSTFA
As to the kind of experiment: MIF tautomerase assay using pHPP as substrate. It counts as biochemical. Particulars: inhibition of the MIF enzyme in vitro; mean of multiple test results; read-out: Tautomerase Inhibition pIC50 (converted). Put shortly:
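Cell-free keto-to-enol tautomerization of pHPP, enol product detected spectrophotometrically as borate complex. Final 3 nM MIF and 1.5 mM ketonic pHPP in DPBS/boric acid buffer with 0.025% BSA and 300 μM CHAPS, pH 6.0, room temperature; initial rates from absorbance slopes give mean pIC50.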

`O=C1Cc2cccnc2N1c1nc(N2CCN(c3ccc(O)cc3)CC2)nc2c1ncn2CCO` [Example 58, 1-(9-(2-hydroxyethyl)-2-(4-(4-hydroxyphenyl)piperazin-1-yl)-9H-purin-6-yl)-1H-pyrrolo[2,3-b]pyridin-2(3H)-one]: the IC50 was 1000 to 9770 nM. In the case of `Cc1nc(N2CCN(c3ccc(O)cc3)CC2)nc2c1ncn2-c1cccnc1` [Example 59, 4-(4-(6-methyl-9-(pyridin-3-yl)-9H-purin-2-yl)piperazin-1-yl)phenol], the IC50 is 100 to 977 nM. With `Cc1nc(N2CCN(c3ccc(O)cc3)CC2)nc2c1ncn2-c1cccnc1O` [Example 60, 3-(2-(4-(4-hydroxyphenyl)piperazin-1-yl)-6-methyl-9H-purin-9-yl)pyridin-2-ol], the IC50 is 100 to 977 nM. For `COc1cccc(-n2cnc3c(C)nc(N4CCN(c5ccc(O)cc5)CC4)nc32)c1Cl` [Example 61, 4-(4-(9-(2-chloro-3-methoxyphenyl)-6-methyl-9H-purin-2-yl)piperazin-1-yl)phenol], the IC50 is 1000 to 9770 nM. As to `Cc1nc(N2CCN(c3ccc(O)cc3)CC2)nc2c1ncn2-c1cc(Cl)cnn1` [Example 63, 4-(4-(9-(5-chloropyridazin-3-yl)-6-methyl-9H-purin-2-yl)piperazin-1-yl)phenol], the IC50 is more than 10000 nM. Under `Cc1nc(N2CCN(c3ccc(O)cc3)CC2)nc2c1ncn2-c1cc(N2CCN(c3ccc(O)cc3)CC2)cnn1` [Example 64, 4-(4-(6-(2-(4-(4-hydroxyphenyl)piperazin-1-yl)-6-methyl-9H-purin-9-yl)pyridazin-4-yl)piperazin-1-yl)phenol] stands 1000 to 9770 nM; under `Cc1nc(N2CCN(c3ccc(O)cc3)CC2)nc2c1ncn2-c1cccc(Cl)c1` [Example 65, 4-(4-(9-(3-chlorophenyl)-6-methyl-9H-purin-2-yl)piperazin-1-yl)phenol], 1000 to 9770 nM. Under `Nc1nc(N2CCN(c3ccc(O)cc3)CC2)nc2c1ncn2-c1ccccc1` [Example 66, 4-(4-(6-amino-9-phenyl-9H-purin-2-yl)piperazin-1-yl)phenol] stands 1000 to 9770 nM.

`Cc1ccncc1-n1cnc2c(N)nc(N3CCN(c4ccc(O)cc4)CC3)nc21` [Example 67, 4-(4-(6-amino-9-(4-methylpyridin-3-yl)-9H-purin-2-yl)piperazin-1-yl)phenol]: the IC50 was 1000 to 9770 nM.

In the case of `Cc1cncc(-n2cnc3c(N)nc(N4CCN(c5ccc(O)cc5)CC4)nc32)c1` [Example 68, 4-(4-(6-amino-9-(5-methylpyridin-3-yl)-9H-purin-2-yl)piperazin-1-yl)phenol], the IC50 was more than 10000 nM. Take `Nc1nc(N2CCN(c3ccc(O)cc3)CC2)nc2c1ncn2-c1ccc(Cl)cc1Cl` [Example 69, 4-(4-(6-amino-9-(2,4-dichlorophenyl)-9H-purin-2-yl)piperazin-1-yl)phenol]: the IC50 was more than 10000 nM. Turning to `Cc1cc(C#N)ccc1-n1cnc2c(N)nc(N3CCN(c4ccc(O)cc4)CC3)nc21` [Example 70, 4-(6-amino-2-(4-(4-hydroxyphenyl)piperazin-1-yl)-9H-purin-9-yl)-3-methylbenzonitrile], the IC50 was more than 10000 nM. The same measure for `Nc1nc(N2CCN(c3ccc(O)cc3)CC2)nc2c1ncn2-c1ccccc1F` [Example 71, 4-(4-(6-amino-9-(2-fluorophenyl)-9H-purin-2-yl)piperazin-1-yl)phenol]: 1000 to 9770 nM; for `Nc1nc(N2CCN(c3ccc(O)cc3)CC2)nc2c1ncn2-c1cccc(F)c1` [Example 72, 4-(4-(6-amino-9-(3-fluorophenyl)-9H-purin-2-yl)piperazin-1-yl)phenol]: 1000 to 9770 nM. Under `Nc1nc(N2CCN(c3ccc(O)cc3)CC2)nc2c1ncn2-c1ccc(F)cc1` [Example 73, 4-(4-(6-amino-9-(4-fluorophenyl)-9H-purin-2-yl)piperazin-1-yl)phenol] stands more than 10000 nM; under `N#Cc1ccc(-n2cnc3c(N)nc(N4CCN(c5ccc(O)cc5)CC4)nc32)cc1` [Example 74, 4-(6-amino-2-(4-(4-hydroxyphenyl)piperazin-1-yl)-9H-purin-9-yl)benzonitrile], 100 to 977 nM.
